Counter-ions that a name gives are not always drawn.
What was measured:
[1] = molecular target: T1, human norepinephrine transporter (Homo sapiens, UniProt P23975); assay: hNET receptor binding ([125I]-RTI-55 radioligand binding, membranes of transfected HEK-293 cells); details: 50 pM [125I]-RTI-55, HEK-293 cell membranes, 90 min at room temperature; IC50 converted to Ki by Cheng-Prusoff equation
T1 construct: host or cells: HEK-293
Text: The ability of the compounds of this invention to bind to the hNET and serotonin SERT receptor can be determined using conventional radioligand receptor binding assays. The receptors can be heterologously expressed in cell lines and experiments conducted in membrane preparations from the cell lines using procedures outlined below. IC50 concentrations can be determined by nonlinear regression of concentration-dependent reduction in specific binding. The Cheng-Prussoff equation can be used to convert the IC50 to Ki concentrations.
Cell pastes of HEK-293 cells transfected with the human norepinephrine transporter were supplied by the Pfizer Ann Arbor Protein Expression and Production group. Pellets were resuspended in 400 to 700 ml of Krebs-HEPES assay buffer (25 mM HEPES, 122 mM NaCl, 3 mM KCl, 1.2 mM MgSO4, 1.3 mM CaCl2, and 11 mM glucose, pH 7.4) with a Polytron homogenizer at setting 7 for 30 sec. Aliquots of membranes (5 mg/ml protein) were stored in liquid nitrogen until used.
The binding assay was set up in Beckman deep-well polypropylene plates with a total volume of 250 μl containing: drug (10^−5M to 10^−12M), cell membranes, and 50 pM [^125I]-RTI-55 (Perkin Elmer, NEX-272; specific activity 2200 Ci/mmol). The reaction was incubated by gentle agitation for 90 min at room temperature and was terminated by filtration through Whatman GF/C filter plates using a Brandel 96-well plate harvester. Scintillation fluid (100 μl) was added to each well, and bound [^125I]-RTI-55 was determined using a Wallac Trilux Beta Plate Counter. Test compounds were run in duplicate, and specific binding was defined as the difference between binding in the presence and absence of 10 μM desipramine.
Excel and GraphPad Prism software were used for data calculation and analysis. IC50 values were converted to Ki values using the Cheng-Prusoff equation.

T1 sequence (P23975 whole entry): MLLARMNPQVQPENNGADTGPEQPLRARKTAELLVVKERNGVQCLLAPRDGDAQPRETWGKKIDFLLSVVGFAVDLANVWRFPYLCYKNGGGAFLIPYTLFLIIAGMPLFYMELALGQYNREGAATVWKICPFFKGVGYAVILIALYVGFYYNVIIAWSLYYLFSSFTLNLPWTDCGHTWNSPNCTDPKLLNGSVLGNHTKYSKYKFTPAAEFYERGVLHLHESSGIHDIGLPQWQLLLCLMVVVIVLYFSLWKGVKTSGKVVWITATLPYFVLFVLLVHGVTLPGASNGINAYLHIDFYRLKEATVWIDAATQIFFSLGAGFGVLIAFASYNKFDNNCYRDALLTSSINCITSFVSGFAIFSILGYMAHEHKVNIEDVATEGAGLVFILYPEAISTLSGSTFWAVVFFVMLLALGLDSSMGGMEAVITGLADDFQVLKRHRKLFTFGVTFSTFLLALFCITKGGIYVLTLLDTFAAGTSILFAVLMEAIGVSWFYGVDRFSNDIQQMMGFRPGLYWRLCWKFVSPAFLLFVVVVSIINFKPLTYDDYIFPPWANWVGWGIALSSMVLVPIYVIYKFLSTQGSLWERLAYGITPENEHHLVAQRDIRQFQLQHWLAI

In the case of O=c1c(N2CCNCC2)nc2ccccc2n1-c1ccccc1 (as salt: hydrochloride) [Example 2, 1-Phenyl-3-piperazin-1-yl-1H-quinoxalin-2-one Hydrochloride], the melting point is reported as 290 to 292 °C.
With O=c1c(N2CCNCC2)nc2ccccc2n1-c1ccccc1F (as salt: hydrochloride) [Example 3, 1-(2-Fluoro-phenyl)-3-piperazin-1-yl-1H-quinoxalin-2-one Hydrochloride] the melting point was 261 to 263 °C.
Compound Cc1ccc(-n2c(=O)c(N3CCNCC3)nc3ccccc32)cc1 (as salt: maleate) [Example 7, 3-Piperazin-1-yl-1-p-tolyl-1H-quinoxalin-2-one Maleate] has a melting point of 197 to 199 °C.
Compound O=c1c(N2CCCNCC2)nc2ccccc2n1-c1ccccc1Cl (as salt: maleate) [Example 11, 1-(2-Chloro-phenyl)-3-[1,4]diazepan-1-yl-1H-quinoxalin-2-one Maleate] has a melting point of 159 to 161 °C.
With Cc1ccc(-n2c(=O)c(N3CCCNCC3)nc3ccccc32)cc1 (as salt: maleate) [Example 13, 3-[1,4]Diazepan-1-yl-1-p-tolyl-1H-quinoxalin-2-one Maleate] the melting point was 199 to 200 °C.
In the case of CC(C)n1c(=O)c(N2CCCNCC2)nc2ccccc21 (as salt: maleate) [Example 15, 3-[1,4]Diazepan-1-yl-1-isopropyl-1H-quinoxalin-2-one Maleate], the melting point is reported as 147 to 149 °C.
O=c1c(N2CCNCC2)nc2cc(F)ccc2n1-c1ccccc1 [Example 1, 6-Fluoro-1-phenyl-3-piperazin-1-yl-1H-quinoxalin-2-one] showed a Ki [1] of 12 nM and a melting point of 150 to 152 °C.
O=c1c(N2CCNCC2)nc2ccccc2n1-c1ccccc1 [Example 2, 1-Phenyl-3-piperazin-1-yl-1H-quinoxalin-2-one Hydrochloride] gave a Ki [1] of 21 nM.
O=c1c(N2CCNCC2)nc2ccccc2n1-c1ccccc1F [Example 3, 1-(2-Fluoro-phenyl)-3-piperazin-1-yl-1H-quinoxalin-2-one Hydrochloride] gave a Ki [1] of 11 nM.
In the case of O=c1c(N2CCNCC2)nc2ccccc2n1-c1ccccc1Cl [Example 4, 1-(2-Chloro-phenyl)-3-piperazin-1-yl-1H-quinoxalin-2-one], the Ki [1] is reported as 44 nM and the melting point is reported as 135 to 137 °C.
With Cc1ccccc1-n1c(=O)c(N2CCNCC2)nc2ccccc21 [Example 5, 3-Piperazin-1-yl-1-o-tolyl-1H-quinoxalin-2-one] the Ki [1] was 69 nM and the melting point was 151 to 153 °C.
In the case of O=c1c(N2CCNCC2)nc2ccccc2n1-c1cccc(F)c1 [Example 6, 1-(3-Fluoro-phenyl)-3-piperazin-1-yl-1H-quinoxalin-2-one], the Ki [1] is reported as 38 nM and the melting point is reported as 149 to 150 °C.
Work on Cc1ccc(-n2c(=O)c(N3CCNCC3)nc3ccccc32)cc1 [Example 7, 3-Piperazin-1-yl-1-p-tolyl-1H-quinoxalin-2-one Maleate] yielded a Ki [1] of 36 nM.
In the case of O=c1c(N2CCNCC2)nc2ccc(F)cc2n1-c1ccccc1 [Example 8, 7-Fluoro-1-phenyl-3-piperazin-1-yl-1H-quinoxalin-2-one], the Ki [1] is reported as 59 nM and the melting point is reported as 142 to 143 °C.
Work on Cc1ccc2nc(N3CCNCC3)c(=O)n(-c3ccccc3)c2c1 [Example 9, 7-Methyl-1-phenyl-3-piperazin-1-yl-1H-quinoxalin-2-one] yielded a Ki [1] of 82 nM and a melting point of 166 to 168 °C.
O=c1c(N2CCNCC2)nc2cc(F)ccc2n1-c1c(F)cccc1F [Example 10, 1-(2,6-Difluoro-phenyl)-6-fluoro-3-piperazin-1-yl-1H-quinoxalin-2-one] showed a Ki [1] of 15 nM and a melting point of 146 to 147 °C.
For O=c1c(N2CCCNCC2)nc2ccccc2n1-c1ccccc1Cl [Example 11, 1-(2-Chloro-phenyl)-3-[1,4]diazepan-1-yl-1H-quinoxalin-2-one Maleate], the Ki [1] was 41 nM.
O=c1c(N2CCCNCC2)nc2ccccc2n1-c1cccc(F)c1 [Example 12, 3-[1,4]Diazepan-1-yl-1-(3-fluoro-phenyl)-1H-quinoxalin-2-one] showed a Ki [1] of 60 nM and a melting point of 128 to 129 °C.
Work on Cc1ccc(-n2c(=O)c(N3CCCNCC3)nc3ccccc32)cc1 [Example 13, 3-[1,4]Diazepan-1-yl-1-p-tolyl-1H-quinoxalin-2-one Maleate] yielded a Ki [1] of 97 nM.
In the case of O=c1c(N2CCCNCC2)nc2cc(F)ccc2n1-c1ccccc1 [Example 14, 3-[1,4]Diazepan-1-yl-6fluoro-1-phenyl-1H-quinoxalin-2-one], the Ki [1] is reported as 27 nM and the melting point is reported as 151 to 152 °C.
Compound CC(C)n1c(=O)c(N2CCCNCC2)nc2ccccc21 [Example 15, 3-[1,4]Diazepan-1-yl-1-isopropyl-1H-quinoxalin-2-one Maleate] has a Ki [1] of 70 nM.
